In patent US9164103B2, “Monitoring and inhibiting human immunodeficiency virus infection by modulating HMGB1 dependent triggering of HIV-1 replication and persistence” (priority 2008, dated 2015):

Key:
iDCs = assay: aNK-induced apoptosis of uninfected iDCs (7-AAD assay, NK:DC 5:1); assay type: cell-based, human; conditions: NK:DC ratio 5:1, 24 h
Protocol: FIGS. 9(a)-(g). aNK-dependent apoptosis of iDCs is TNF-related apoptosis-inducing ligand (TRAIL)-dependent and involves the DR4 receptor. (a) CD56^+ NK cells were purified from the blood of healthy donors. NK cells were maintained in culture with suboptimal concentrations of interleukin-2 (IL-2) (100 ng/ml) (rNK cells) or activated (aNK cells) by the addition PHA (10 μg/ml) and IL-2 (10 μg/ml) to cultures. The intensity of staining with anti-CD56 antibodies allows the distinction between two NK cell populations expressing CD56 highly (CD56^bright cells) and weakly (CD56^dim cells). Data represent the mean±sd of three independent experiments. (b) Membrane TRAIL (mTRAIL) expression by NK cells is determined by flow cytometry with anti-CD56 and -mTRAIL specific antibodies. Data represent one of three independent experiments. […] The proportions of mTRAIL-expressing aNK cells among CD56^bright and CD56^dim populations were determined. […] DR4 expression at the DCs surface is analyzed after 1, 2, 3.5, 6 and 24 h of NK-DC coculture. […] Cell death was then quantified with the 7-AAD assay. […] (f) 24 h cell-free culture supernatants of iDCs, rNK cells, aNK cells (10^6/ml), or cocultures of aNK cells and iDCs (ratio 5:1) were tested for soluble TRAIL (sTRAIL) content. sTRAIL was quantified by ELISA. […] The viability status of DCs was determined by flow cytometry with the 7-AAD assay. […]

R5-HIV-1Ba-L = assay: HIV-1 replication in infected iDCs (p24 ELISA in culture supernatant); assay type: cell-based; conditions: for HIV-1 production (p24 in supernatant): 3 days, inhibitor 10 μg/ml
Protocol: FIGS. 6 (a), (b) and (c). Exogenous rh-HMGB1 triggers HIV-1 and HIV-2 replication in iDC. (a) HIV-1-infected iDC were cultured alone or in the presence of aNK cells for 3 days. Rh-HMGB1 (1 μg/ml) was added in some cultures. HIV replication was measured by p24 quantification in culture supernatant (b) HIV1-infected iDC were cultured alone or in the presence of aNK cells for 3 days. Blocking anti-HMGB1 antibodies (10 μg/ml) or glycyrrhizin (10 μg/ml) were added at culture initiation. HIV replication was measured by p24 quantification in culture supernatant. The mean±sd of three independent experiments is shown. Statistical comparisons were made with the non parametric Mann-Whitney test. * p<0.05; (c) HIV-2-infected iDC were cultured alone or in the presence of aNK cells for 3 days. Rh-HMGB1 (1 μg/ml) was added in some cultures. HIV replication was measured by p24 quantification in culture supernatant.
Exogenous HMGB1 was recently reported to increase HIV-1 replication in infected monocytic cell lines38, and to induce in vitro the reactivation of HIV-1 in PBMCs from HIV-1-infected patients under antiretroviral therapy39. Therefore, the question of the role of HMGB1 in the NK-dependent triggering of HIV replication in DCs was addressed. […] To investigate the influence of HMGB1 in the triggering of HIV-1 replication in infected-iDC-aNK cocultures, HMGB1-specific neutralizing antibodies or glycyrrhizin were added to these cocultures and p24 production was measured in the supernatant. […] They also indicate that aNK cell-dependent stimulation of HIV-1 replication in iDCs is mediated by HMGB1.
Virus stock preparation was prepared by amplification of R5-HIV-1Ba-L on MDM from healthy donors. Viral stock was then clarified by centrifugation prior to determination of HIV1 p24 concentration. iDCs were plated in 96-well culture plates at 200,000 cells/well and incubated for 3 hours at 37° C. in a 5% CO2 atmosphere with R5-HIV-1BAL at various concentrations (0.001 to 10 ng p24/ml). Cells were harvested, washed four times with media containing 10% FCS and, when indicated, rNK or aNK cells were added at a NK:DC ratio of 1:5, unless otherwise indicated. NK-DC cocultures lasted 24 h before analysis of the maturation stage of DCs and/or quantification of viral production. In some experiments (FIG. 6), HIV-1 infected iDCs were incubated alone or with aNK cells for 3 days, in the presence of rh-HMGB1 (1 μg/ml) (R&DSystems), and in some cultures in the presence of rabbit antiHMGB1 Abs (10 μg/ml) (Abcam, Cambridge, UK) or Glycyrrhizin (10 μg/ml).
The concentration of HIV-1 in the supernatant of infected cell cultures was determined by measuring the amount of p24 protein by ELISA (Ingen, Belgium). DNA from cells was extracted using the GIAamp DNA Blood Mini Kit (Qiagen, Basel, Switzerland) and quantified HIV-1 proviral load by RT-PCR as described previously54. The frequency of HIV-1-infected cells was determined by flow cytometry to detect intracellular p24 molecule. Cells were surface stained with antibodies specific for CD40 (BD Biosciences, San Jose, Calif.) to target DC and intracellular stained with p24-specific antibodies (Coulter). Stained cells were fixed in 1% PFA, immediately acquired on a FACScalibur (Becton Dickinson) and analyzed with FlowJo software. In some experiments infected DCs were imaged, after immunofluorescence, by laser scanning confocal microscopy.

[1] = system: iDCs cocultured with aNK cells; assay: aNK-dependent maturation of uninfected iDCs in aNK-iDC coculture (CD86/HLA-DR flow cytometry); assay type: cell-based, human; conditions: 24 h aNK-iDC coculture, inhibitor 10 μg/ml added at initiation
Protocol: (a) Left panel: iDCs were cultured for 24 h either alone or with aNK cells, in the presence of blocking anti-HMGB1 antibodies (10 μg/ml) or glycyrrhizin (10 μg/ml). The maturation status of DCs was determined by flow cytometry with CD86 and HLA-DR—specific antibodies. Right panel: same experiment, but performed with HIV-1 infected iDCs. Data represent mean±sd of at least three independent experiments, and statistical comparisons were made with the non parametric Mann-Whitney test. * p<0.05. […] NK cells were excluded from the analysis through the co-staining with CD3- and CD56-specific antibodies (CD3^−CD56^+).
To determine the possible involvement of HMGB1 in NK-dependent DC maturation, glycyrrhizin, which is known to interact specifically with soluble HMGB1 molecule31, was used as well as anti-HMGB1 antibodies (FIG. 3a). […] The possible involvement of RAGE during NK-DC cross-talk was evaluated with the same approach, comparing RAGE expression on DCs cocultured with aNK cells and DC cultured alone.
After 6 days of culture in the presence of IL-4 and GM-CSF, iDCs (10^6 cells/ml) were either non stimulated, or stimulated during 48 h with 10 μg/ml LPS (E. coli serotype 026-B6, Sigma-Aldrich) to obtain DC0 cells, or 500 ng/ml of trimeric CD40L (Sigma-Aldrich) to obtain DC1 cells, or 10 μg/ml of LPS and 1 μg/ml PGE2 (Sigma-Aldrich) to obtain DC2 cells. […]

HIV-1-infected iDCs = assay: Apoptosis of HIV-1-infected iDCs (7-AAD assay); assay type: cell-based, human
Protocol: Living cells are 7-AAA^−, apoptotic cells 7-AAD^+, and apoptotic debris are 7-AAD^−FSC^low. Dot plots represent one of at least three independent experiments. […] Cell death was then quantified with the 7-AAD assay. The mean±sd of three independent experiments was presented.
(a) iDCs or HIV-1-infected iDCs were cultured alone or in the presence of aNK cells (NK:DC ratio of 5:1). […] Cell death was then quantified with the 7-AAD assay. (b) Same experiments were performed in the presence of blocking anti-HMGB1 antibodies (10 and 15 μg/ml). One representative experiment out of three conducted is shown.
Immature DCs (iDCs) were prepared from sorted monocytes from healthy donors, cultured for 6 days in the presence of IL-4 and GM-CSF. In some experiments, iDCs were infected with R5-HIV-1 (1 ng/ml of p24). Coculture experiments with autologous purified aNK cells (activated by PHA+IL-2) were performed at various NK:DC ratios. The influence of NK-DC interaction on DC's maturation and apoptosis was analyzed using multiparametric flow cytometry, combining 7-AAD staining with membrane and intracellular staining with mAbs specific for HLA-DR, DC-SIGN, CD83, CD86, DR4, mTRAIL, etc.
To investigate the impact of HIV on aNK-induced iDCs' apoptosis, iDCs were infected with R5-HIV-1 (1 ng of p24/ml).

C/C=C/[C@H]1O[C@@](O)([C@@H](C)[C@H](O)[C@H](C)[C@H]2OC(=O)/C(OC)=C/C(C)=C/[C@@H](C)[C@@H](O)[C@@H](CC)[C@@H](O)[C@H](C)C/C(C)=C/C=C/[C@@H]2OC)C[C@@H](O[C@H]2C[C@@H](O)[C@H](OC(N)=O)[C@@H](C)O2)[C@@H]1C [Concanamycin A] was tested, and the “NK-dependent iDCs apoptosis” value (iDCs) was “no effect”.

In the case of CC1(C)[C@@H](O[C@H]2O[C@H](C(=O)O)[C@@H](O)[C@H](O)[C@H]2O[C@@H]2O[C@H](C(=O)O)[C@@H](O)[C@H](O)[C@H]2O)CC[C@]2(C)[C@H]3C(=O)C=C4[C@@H]5C[C@@](C)(C(=O)O)CC[C@]5(C)CC[C@@]4(C)[C@]3(C)CC[C@@H]12 [glycyrrhizin], the HIV-1 replication (R5-HIV-1Ba-L; 24 h cultures of infected iDCs, absence of NK cells) is reported as “decreased significantly HIV-1 replication”, the “HIV-1 production (p24 in supernatant)” value (R5-HIV-1Ba-L; infected DC cocultured with aNK cells) is reported as “abrogated HIV-1 production” and the “HIV-1 production (p24 in supernatant)” value (R5-HIV-1Ba-L; infected DC cultured alone) is reported as “abrogated HIV-1 production”. The “proportions of mature DCs (CD86bright HLA-DRbright)” value [1] was “reduced the proportions of mature DCs” and the “resistance of HIV-1-infected iDCs to aNK-induced apoptosis” value (HIV-1-infected iDCs; NK:DC ratio 5:1, inhibition assays) was “found dependent on HMGB1”.

B1: rhs-TRAIL: recombinant human soluble TRAIL (protein, UniProt P50591 39-281, looked up)
extracellular domain: TNELKQMQDKYSKSGIACFLKEDDSYWDPNDEESMNSPCWQVKWQLRQLVRKMILRTSEETISTVQEKQQNISPLVRERGPQRVAAHITGTRGRSNTLSSPNSKNEKALGRKINSWESSRSGHSFLSNLHLRNGELVIHEKGFYYIYSQTYFRFQEEIKENTKNDKQMVQYIYKYTSYPDPILLMKSARNSCWSKDAEYGLYSIYQGGIFELKENDRIFVSVTNEHLIDMDHEASFFGAFLVG
modifications: extracellular domain
B1 was tested, and the “TRAIL-induced apoptosis of HIV-1-infected DCs” value (HIV-1-infected iDCs; 24 h, 1-1000 ng/ml) was “still susceptible to TRAIL-induced apoptosis”.
